Assay results: patent US8173689B2 (Novartis AG, priority 2006, dated 2012)
Read-outs that look alike come from different tables or passages of the source.

What was measured:
[1] = target: T1, cytoplasmic domain of the human CSF-1R (Homo sapiens, UniProt P07333); test: In vitro kinase assay for colony stimulating factor-1 receptor (AlphaScreen); format: biochemical; conditions: tested at about 1 μM; for inhibition at 1 µM: read-out: CSF-1R percent inhibition
T1 construct: Recombinant protein corresponding to the cytoplasmic domain of the human CSF-1R; purchased Invitrogen Corporation, Carlsbad, Calif; PV3249
T1 sequence (P07333 539-972 limits assumed): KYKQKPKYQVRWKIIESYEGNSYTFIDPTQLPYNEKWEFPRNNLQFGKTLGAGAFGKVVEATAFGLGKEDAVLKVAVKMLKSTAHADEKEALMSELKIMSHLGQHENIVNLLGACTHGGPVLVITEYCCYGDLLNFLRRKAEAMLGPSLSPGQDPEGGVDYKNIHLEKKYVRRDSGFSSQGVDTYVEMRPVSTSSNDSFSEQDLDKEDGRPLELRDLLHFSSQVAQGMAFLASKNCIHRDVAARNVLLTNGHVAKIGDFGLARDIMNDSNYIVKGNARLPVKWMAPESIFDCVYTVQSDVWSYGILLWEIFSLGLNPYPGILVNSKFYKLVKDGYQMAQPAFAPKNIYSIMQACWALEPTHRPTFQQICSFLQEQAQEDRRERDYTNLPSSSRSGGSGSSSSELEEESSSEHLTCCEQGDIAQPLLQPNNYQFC
Description: The kinase activity of various protein tyrosine kinases can be measured by providing ATP and a suitable peptide or protein tyrosine-containing substrate, and assaying the transfer of phosphate moiety to the tyrosine residue. Recombinant protein corresponding to the cytoplasmic domain of the human CSF-1R was purchased from Invitrogen Corporation, Carlsbad, Calif. U.S.A. (#PV3249). For each assay, test compounds were serially diluted, starting at 25 μM with 3 fold dilutions, in DMSO in 384 well plates then mixed with an appropriate kinase reaction buffer consisting of 50 mM Hepes, 5 mM MgCl2, 10 mM MnCl2, 0.1% BSA, pH 7.5, 1.0 mM dithiothreitol, 0.01% Tween 80 plus 1 μM ATP. […] Added to the stopped reaction mix was 30 μL of PT66 Alphascreen beads (Perkin Elmer, Boston, Mass., U.S.A.). The reaction was incubated overnight and read on the Envision (Perkin Elmer). Phosphorylated peptide product was measured with the AlphaScreen system (Perkin Elmer) using acceptor beads coated with anti-phosphotyrosine antibody PT66 and donor beads coated with streptavidin that emit a fluorescent signal at the 520-620 nm emission wave length if in close proximity.
CSF-1R kinase was added at final concentration of 4 nM.

kinase domain of cKIT = target: T2, kinase domain of cKIT (Homo sapiens, UniProt P10721); test: Inhibition of cKIT kinase signaling in an in vitro biochemical assay (alphascreen); conditions: tested at about 1 μM; for inhibition at 1 µM: read-out: cKit percent inhibition
T2 construct: The kinase domain of cKIT was assayed in 50 mM Hepes; purchased Upstate 14-559
T2 sequence (P10721 589-937 limits assumed): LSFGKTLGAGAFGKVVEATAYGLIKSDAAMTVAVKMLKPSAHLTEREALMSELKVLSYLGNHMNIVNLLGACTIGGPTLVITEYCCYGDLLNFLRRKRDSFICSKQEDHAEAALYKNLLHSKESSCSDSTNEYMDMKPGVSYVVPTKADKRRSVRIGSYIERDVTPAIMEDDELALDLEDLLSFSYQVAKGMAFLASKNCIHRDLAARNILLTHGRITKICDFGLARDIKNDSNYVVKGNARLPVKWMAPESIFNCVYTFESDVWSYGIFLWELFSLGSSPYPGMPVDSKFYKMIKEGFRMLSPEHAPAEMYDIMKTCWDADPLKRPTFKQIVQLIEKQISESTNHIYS
Description: (§1) The IC50 values for the inhibition of RTKs were determined in the alphascreen format measuring the inhibition by compound of phosphate transfer to a substrate by the respective enzyme. Briefly, the respective RTK domain purchased as human recombinant protein (cKIT Upstate #14-559, PDGFRb Invitrogen #P3082) were incubated with serial dilutions of compound in the presence of substrate and ATP concentrations within 3 times the Km of the enzyme.
(§2) Alphascreen PY20 beads were added to the stopped cKIT reactions and PY20 Ab/Protein A Alphascreen beads were added to the PDGFRβ stopped reactions. Both reactions were incubated overnight and read on the Alphascreen reader.

kinase domain of PDGFRβ = target: T3, kinase domain of PDGFRβ (Homo sapiens, UniProt P09619); test: Inhibition of PDGFRb kinase signaling in an in vitro biochemical assay (alphascreen); conditions: tested at about 1 μM, read-out: PDGFRβ percent inhibition
T3 construct: The kinase domain of PDGFRβ was assayed in 50 mM Hepes; purchased Invitrogen P3082
T3 sequence (P09619 600-962 limits assumed): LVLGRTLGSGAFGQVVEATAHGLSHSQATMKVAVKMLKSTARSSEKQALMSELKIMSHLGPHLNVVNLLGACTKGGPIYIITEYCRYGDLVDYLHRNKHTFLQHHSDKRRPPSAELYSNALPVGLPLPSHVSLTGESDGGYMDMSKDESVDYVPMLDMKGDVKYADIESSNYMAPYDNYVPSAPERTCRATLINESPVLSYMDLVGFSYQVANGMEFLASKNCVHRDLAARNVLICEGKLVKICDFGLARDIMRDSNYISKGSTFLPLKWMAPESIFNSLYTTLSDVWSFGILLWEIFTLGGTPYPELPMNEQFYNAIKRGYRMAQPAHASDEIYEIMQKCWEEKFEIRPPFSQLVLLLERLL
Description: as §1, §2

4-[2-(Benzo[1,3]dioxol-5-yl- amino)-benzooxazol-6- yloxy]-pyridine-2-carboxylic acid methylamide [Compound 95]
CSF-1R percent inhibition ([1]; compounds of Table 4): 100%
cKit percent inhibition (kinase domain of cKIT; compounds of Table 4): 42%

Cn1nccc1-c1cnccc1Oc1ccc2nc(N[C@@H]3CCCC[C@H]3O)sc2c1 [Example 191]
inhibition at 1 µM (kinase domain of PDGFRβ; compounds of Table 3): 15%
inhibition at 1 µM ([1]; compounds of Table 3): 45%
inhibition at 1 µM (kinase domain of cKIT; compounds of Table 3): 19%

CNC(=O)c1cc(Oc2ccc3nc(NCCN4CCCCC4)oc3c2)ccn1 [Compound 64, 4-[2-(2-Piperidin-1-yl-ethyl-amino)-benzooxazol-6-yloxy]-pyridine-2-carboxylic acid methylamide]
inhibition at 1 µM (kinase domain of PDGFRβ): 21%
inhibition at 1 µM [1]: 77%
inhibition at 1 µM (kinase domain of cKIT): 0%

CNC(=O)c1cc(Oc2ccc3nc(NC4CCCC(NC(C)=O)C4)sc3c2)ccn1 (stereo not drawn) [Example 296, 4-(2-(3-acetamidocyclohexylamino)benzo[d]thiazol-6-yloxy)-N-methylpicolinamide]
inhibition at 1 µM (kinase domain of PDGFRβ; compounds of Table 3): 9%
inhibition at 1 µM ([1]; compounds of Table 3): 97%
inhibition at 1 µM (kinase domain of cKIT; compounds of Table 3): 1%

O[C@@H]1CCCC[C@H]1Nc1nc2ccc(Oc3ccnc(C4CC4)c3)cc2s1 [Cmpd 169, (1R,2R)-2-(6-(2-cyclopropylpyridin-4-yloxy)benzo[d]thiazol-2-ylamino)cyclohexanol]
inhibition at 1 µM (kinase domain of PDGFRβ; compounds of Table 3): 0%
inhibition at 1 µM ([1]; compounds of Table 3): 75%
inhibition at 1 µM (kinase domain of cKIT; compounds of Table 3): 12%

CNC(=O)c1cc(Oc2ccc3nc(N[C@@H]4CCCC[C@H]4NC(=O)C(C)C)sc3c2)ccn1 [Example 327, 4-(2-((1R,2R)-2-isobutyramidocyclohexyl-amino)benzo[d]thiazol-6-yloxy)-N-methylpicolinamide]
inhibition at 1 µM (kinase domain of PDGFRβ): 0%
inhibition at 1 µM [1]: 47%
inhibition at 1 µM (kinase domain of cKIT): 6%

CNC(=O)c1cc(Oc2ccc3nc(N[C@H](CO)c4ccccc4)oc3c2)ccn1 [Compound 56, 4-[2-((S)-2-Hydroxy-1-phenyl-ethylamino)-benzooxazol-6-yloxy]-pyridine-2-carboxylic acid methylamide]
inhibition at 1 µM (kinase domain of PDGFRβ): 0%
inhibition at 1 µM [1]: 66%
inhibition at 1 µM (kinase domain of cKIT): 55%

N#Cc1cc(Oc2ccc3nc(NCC4CCCCC4)oc3c2)ccn1 [Compound 82, 4-[2-(Cyclohexylmethyl-amino)-benzooxazol-6-yloxy]-pyridine-2-carbonitrile]
inhibition at 1 µM (kinase domain of PDGFRβ): 0%
inhibition at 1 µM [1]: 46%
inhibition at 1 µM (kinase domain of cKIT): 9%

CNC(=O)c1cc(Oc2ccc3nc(NCC4CN(Cc5ccccc5)CCO4)oc3c2)ccn1 (stereo not drawn) [Compound 120, 4-{2-[(4-Benzyl-morpholin-2-ylmethyl)-amino]-benzooxazol-6-yloxy}-pyridine-2-carboxylic acid methylamide]
inhibition at 1 µM (kinase domain of PDGFRβ): 0%
inhibition at 1 µM [1]: 75%
inhibition at 1 µM (kinase domain of cKIT): 5%

CNC(=O)c1cc(Oc2ccc3nc(N[C@@H](CO)c4ccccc4)oc3c2)ccn1 [Compound 37, 4-[2-((R)-2-Hydroxy-1-phenyl-ethylamino)-benzooxazol-6-yloxy]-pyridine-2-carboxylic acid methylamide]
inhibition at 1 µM (kinase domain of PDGFRβ): 16%
inhibition at 1 µM [1]: 79%

CNC(=O)c1cc(Oc2ccc3nc(NC4CCOCC4)oc3c2)ccn1 [Compound 30, 4-[2-(Tetrahydro-pyran-4-yl-amino)-benzooxazol-6-yloxy]-pyridine-2-carboxylic acid methylamide]
inhibition at 1 µM (kinase domain of PDGFRβ): 14%
inhibition at 1 µM [1]: 25%

CNC(=O)c1cc(Oc2ccc3nc(N[C@@H]4CCN(C(C)=O)C4)sc3c2)ccn1 [Example 303, (R)-4-(2-(1-acetylpyrrolidin-3-ylamino)benzo[d]thiazol-6-yloxy)-N-methylpicolinamide]
inhibition at 1 µM (kinase domain of PDGFRβ): 12%
inhibition at 1 µM [1]: 74%
inhibition at 1 µM (kinase domain of cKIT): 24%

CNC(=O)c1cc(Oc2ccc3nc(N[C@H](C(=O)OC)c4ccccc4)oc3c2)ccn1 [Compound 55, (S)-[6-(2-Methylcarbamoyl-pyridin-4-yloxy)-benzooxazol-2-ylamino]-phenyl-acetic acid methyl ester]
inhibition at 1 µM (kinase domain of PDGFRβ): 11%
inhibition at 1 µM [1]: 97%
inhibition at 1 µM (kinase domain of cKIT): 21%

CNC(=O)c1cc(Oc2ccc3nc(N[C@H]4CCCC[C@H]4NC(=O)CC(C)C)sc3c2)ccn1 [Example 311, N-methyl-4-(2-((1S,2R)-2-(3-methylbutyanamido)cyclo-hexylamino)benzo[d]thiazol-6-yloxy)picolinamide]
inhibition at 1 µM (kinase domain of PDGFRβ): 88%
inhibition at 1 µM [1]: 93%
inhibition at 1 µM (kinase domain of cKIT): 22%

CNC(=O)c1cc(Oc2ccc3nc(N[C@H]4CCCC[C@H]4NC(=O)NC(C)C)sc3c2)ccn1 [Example 301, 4-(2-((1S,2R)-2-(3-isopropylureido)cyclohexyl-amino)benzo[d]thiazol-6-yloxy)-N-methylpicolinamide]
inhibition at 1 µM (kinase domain of PDGFRβ): 7%
inhibition at 1 µM [1]: 55%
inhibition at 1 µM (kinase domain of cKIT): 0%

CNC(=O)c1cnccc1Oc1ccc2nc(N[C@@H]3CCCC[C@H]3O)sc2c1 [Example 291, 4-(2-((1R,2R)-2-hydroxycyclohexylamino)benzo[d]thiazol-6-yloxy)-N-methylnicotinamide]
inhibition at 1 µM (kinase domain of PDGFRβ; compounds of Table 3): 0%
inhibition at 1 µM ([1]; compounds of Table 3): 48%
inhibition at 1 µM (kinase domain of cKIT; compounds of Table 3): 4%

CNC(=O)c1cc(Oc2ccc3nc(NC4CCCC4)oc3c2)ccn1 [Compound 23, 4-(2-Cyclopentylamino-benzooxazol-6-yloxy)-pyridine-2-carboxylic acid methylamide]
inhibition at 1 µM (kinase domain of PDGFRβ): 0%
inhibition at 1 µM [1]: 50%

Cn1cc(-c2cc(Oc3ccc4nc(NC5CCCCCC5)sc4c3)ccn2)cn1 [Example 364, N-cycloheptyl-6-(2-(1-methyl-1H-pyrazol-4-yl)pyridin-4-yloxy)benzo[d]thiazol-2-amine]
inhibition at 1 µM (kinase domain of PDGFRβ): 100%
inhibition at 1 µM [1]: 100%
inhibition at 1 µM (kinase domain of cKIT): 100%

CNC(=O)c1cc(Oc2ccc3nc(N[C@@H](C)c4ccc5ccccc5c4)oc3c2)ccn1 [Compound 20, 4-[2-((S)-1-Naphthalen-2-yl-ethylamino)-benzooxazol-6-yloxy]-pyridine-2-carboxylic acid methylamide]
inhibition at 1 µM (kinase domain of PDGFRβ): 0%
inhibition at 1 µM [1]: 15%

CNC(=O)c1cc(Oc2ccc3nc(N[C@@H](C(=O)O)c4ccccc4)oc3c2)ccn1 [Compound 35, (R)-[6-(2-Methylcarbamoyl-pyridin-4-yloxy)-benzooxazol-2-ylamino]-phenyl-acetic acid]
inhibition at 1 µM (kinase domain of PDGFRβ): 9%
inhibition at 1 µM [1]: 19%

CNC(=O)c1cc(Oc2ccc3nc(N[C@H](C(=O)O)c4ccccc4)oc3c2)ccn1 [Compound 38, (S)-[6-(2-Methylcarbamoyl-pyridin-4-yloxy)-benzooxazol-2-ylamino]-phenyl-acetic acid]
inhibition at 1 µM (kinase domain of PDGFRβ): 14%
inhibition at 1 µM [1]: 34%

CNC(=O)c1cc(Oc2ccc3nc(N[C@H](C(=O)NC)c4ccccc4)oc3c2)ccn1 [Compound 39, 4-{2-[((S)-Methylcarbamoyl-phenyl-methyl)-amino]-benzooxazol-6-yloxy}-pyridine-2-carboxylic acid methylamide]
inhibition at 1 µM (kinase domain of PDGFRβ): 10%
inhibition at 1 µM [1]: 67%

CNC(=O)c1cc(Oc2ccc3nc(Nc4ccccc4CCN4CCCC4)oc3c2)ccn1 [Compound 43, 4-{2-[2-(2-Pyrrolidin-1-yl-ethyl)-phenylamino]-benzooxazol-6-yloxy}-pyridine-2-carboxylic acid methylamide]
inhibition at 1 µM (kinase domain of PDGFRβ): 15%
inhibition at 1 µM [1]: 26%

CNC(=O)c1cc(Oc2ccc3nc(Nc4ccccc4-n4cnc(C)c4)oc3c2)ccn1 [Compound 45, 4-{2-[2-(4-Methyl-imidazol-1-yl)-phenylamino]-benzooxazol-6-yloxy}-pyridine-2-carboxylic acid methylamide]
inhibition at 1 µM (kinase domain of PDGFRβ): 14%
inhibition at 1 µM [1]: 11%

CNC(=O)c1cc(Oc2ccc3nc(NC(C)c4nccs4)oc3c2)ccn1 (stereo not drawn) [Compound 6, 4-[2-(1-Thiazol-2-yl-ethylamino)-benzooxazol-6-yloxy]-pyridine-2-carboxylic acid methylamide]
inhibition at 1 µM [1]: 85%
